Source: ChEMBL document CHEMBL4507296 (2021)

Key:
[1] = biological target: Mitogen-activated protein kinase kinase kinase 13 (Homo sapiens) (UniProt O43283); conditions: Compound concentration 1000.0 nM
[2] = biological target: Cyclin-dependent kinase 11A (Homo sapiens) (UniProt Q9UQ88); conditions: Compound concentration 1000.0 nM
[3] = biological target: Mitogen-activated protein kinase 7 (Homo sapiens) (UniProt Q13164); conditions: Compound concentration 1000.0 nM
[4] = biological target: Macrophage colony-stimulating factor 1 receptor (Homo sapiens) (UniProt P07333); conditions: Compound concentration 1000.0 nM
[5] = biological target: Cyclin-dependent kinase 4 (Homo sapiens) (UniProt P11802); conditions: Compound concentration 1000.0 nM
[6] = biological target: Fibroblast growth factor receptor 2 (Homo sapiens) (UniProt P21802); conditions: Compound concentration 1000.0 nM
[7] = biological target: Serine/threonine-protein kinase RIO2 (Homo sapiens) (UniProt Q9BVS4); conditions: Compound concentration 1000.0 nM
[8] = biological target: Homeodomain-interacting protein kinase 1 (Homo sapiens) (UniProt Q86Z02); conditions: Compound concentration 1000.0 nM
[9] = biological target: Receptor-interacting serine/threonine-protein kinase 1 (Homo sapiens) (UniProt Q13546); conditions: Compound concentration 1000.0 nM
[10] = biological target: Myosin-IIIa (Homo sapiens) (UniProt Q8NEV4); conditions: Compound concentration 1000.0 nM
[11] = biological target: cGMP-dependent protein kinase 1 (Homo sapiens) (UniProt Q13976); conditions: Compound concentration 1000.0 nM
[12] = biological target: Serine/threonine-protein kinase Nek2 (Homo sapiens) (UniProt P51955); conditions: Compound concentration 1000.0 nM
[13] = biological target: Serine/threonine-protein kinase pim-2 (Homo sapiens) (UniProt Q9P1W9); conditions: Compound concentration 1000.0 nM
[14] = biological target: Non-receptor tyrosine-protein kinase TYK2 (Homo sapiens) (UniProt P29597); conditions: Compound concentration 1000.0 nM
[15] = biological target: Serine/threonine-protein kinase PAK 6 (Homo sapiens) (UniProt Q9NQU5); conditions: Compound concentration 1000.0 nM
[16] = tested on: Receptor-type tyrosine-protein kinase FLT3 (Homo sapiens), P36888 [UNDEFINED MUTATION]; conditions: Compound concentration 1000.0 nM
[17] = biological target: Serine/threonine-protein kinase 35 (Homo sapiens) (UniProt Q8TDR2); conditions: Compound concentration 1000.0 nM
[18] = biological target: NUAK family SNF1-like kinase 1 (Homo sapiens) (UniProt O60285); conditions: Compound concentration 1000.0 nM
[19] = biological target: Dual specificity protein kinase CLK4 (Homo sapiens) (UniProt Q9HAZ1); conditions: Compound concentration 1000.0 nM
[20] = biological target: Tyrosine-protein kinase receptor UFO (Homo sapiens) (UniProt P30530); conditions: Compound concentration 1000.0 nM
[21] = biological target: RAC-beta serine/threonine-protein kinase (Homo sapiens) (UniProt P31751); conditions: Compound concentration 1000.0 nM
[22] = biological target: 5-hydroxytryptamine receptor 6 (Homo sapiens) (UniProt P50406); conditions: Compound concentration 10.0 uM
[23] = biological target: D(2) dopamine receptor (Homo sapiens) (UniProt P14416); conditions: Compound concentration 10.0 uM
[24] = biological target: G protein-coupled receptor kinase 4 (Homo sapiens) (UniProt P32298); conditions: Compound concentration 1000.0 nM
[25] = biological target: Platelet-derived growth factor receptor beta (Homo sapiens) (UniProt P09619); conditions: Compound concentration 1000.0 nM
[26] = biological target: Aurora kinase C (Homo sapiens) (UniProt Q9UQB9); conditions: Compound concentration 1000.0 nM
[27] = biological target: Serine/threonine-protein kinase pim-1 (Homo sapiens) (UniProt P11309); conditions: Compound concentration 1000.0 nM
[28] = tested on: Tyrosine-protein kinase ABL1 (Homo sapiens), P00519 [E255K]; conditions: Compound concentration 1000.0 nM
[29] = biological target: NUAK family SNF1-like kinase 2 (Homo sapiens) (UniProt Q9H093); conditions: Compound concentration 1000.0 nM
[30] = tested on: Epidermal growth factor receptor (Homo sapiens), P00533 [L858R]; conditions: Compound concentration 1000.0 nM
[31] = biological target: LIM domain kinase 2 (Homo sapiens) (UniProt P53671); conditions: Compound concentration 1000.0 nM
[32] = biological target: MAP kinase-interacting serine/threonine-protein kinase 2 (Homo sapiens) (UniProt Q9HBH9); conditions: Compound concentration 1000.0 nM
[33] = biological target: Serine/threonine-protein kinase ICK (Homo sapiens) (UniProt Q9UPZ9); conditions: Compound concentration 1000.0 nM
[34] = biological target: Serine/threonine-protein kinase haspin (Homo sapiens) (UniProt Q8TF76); conditions: Compound concentration 1000.0 nM
[35] = biological target: Voltage-gated sodium channel (Na+ channel, site 2) (Rattus norvegicus, UniProt F1LQQ7+O08562+O88420+O88457+P04774+P04775+P08104+P15389+P15390+Q62968); test: Na+ channel (site 2) (rat) CEREP ligand profiling; assay type: protein assay; conditions: compound concentration 10 uM
[36] = biological target: Bone morphogenetic protein receptor type-1A (Homo sapiens) (UniProt P36894); conditions: Compound concentration 1000.0 nM
[37] = biological target: Serine/threonine-protein kinase TNNI3K (Homo sapiens) (UniProt Q59H18); conditions: Compound concentration 1000.0 nM
[38] = biological target: Serine/threonine-protein kinase Nek3 (Homo sapiens) (UniProt P51956); conditions: Compound concentration 1000.0 nM
[39] = biological target: Phosphatidylinositol 3-kinase catalytic subunit type 3 (Homo sapiens) (UniProt Q8NEB9); conditions: Compound concentration 1000.0 nM
[40] = biological target: Serine/threonine-protein kinase ULK3 (Homo sapiens) (UniProt Q6PHR2); conditions: Compound concentration 1000.0 nM
[41] = biological target: Rho-associated protein kinase 1 (Homo sapiens) (UniProt Q13464); conditions: Compound concentration 1000.0 nM
[42] = biological target: Aurora kinase A (Homo sapiens) (UniProt O14965); conditions: Compound concentration 1000.0 nM
[43] = biological target: Rhodopsin kinase GRK1 (Homo sapiens) (UniProt Q15835); conditions: Compound concentration 1000.0 nM
[44] = biological target: Serine/threonine-protein kinase PLK2 (Homo sapiens) (UniProt Q9NYY3); conditions: Compound concentration 1000.0 nM

Serine/threonine-protein kinase pim-2 (Homo sapiens), sequence (Q9P1W9 whole entry, looked up): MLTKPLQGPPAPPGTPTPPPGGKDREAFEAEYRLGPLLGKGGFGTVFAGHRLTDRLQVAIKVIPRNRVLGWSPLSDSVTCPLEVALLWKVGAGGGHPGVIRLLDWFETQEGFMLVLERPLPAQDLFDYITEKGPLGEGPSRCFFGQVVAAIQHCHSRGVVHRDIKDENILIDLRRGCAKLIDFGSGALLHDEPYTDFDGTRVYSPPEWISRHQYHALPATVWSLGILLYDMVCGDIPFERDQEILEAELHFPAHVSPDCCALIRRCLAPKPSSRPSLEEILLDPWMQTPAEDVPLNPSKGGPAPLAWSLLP
Rhodopsin kinase GRK1 (Homo sapiens), sequence (Q15835 whole entry): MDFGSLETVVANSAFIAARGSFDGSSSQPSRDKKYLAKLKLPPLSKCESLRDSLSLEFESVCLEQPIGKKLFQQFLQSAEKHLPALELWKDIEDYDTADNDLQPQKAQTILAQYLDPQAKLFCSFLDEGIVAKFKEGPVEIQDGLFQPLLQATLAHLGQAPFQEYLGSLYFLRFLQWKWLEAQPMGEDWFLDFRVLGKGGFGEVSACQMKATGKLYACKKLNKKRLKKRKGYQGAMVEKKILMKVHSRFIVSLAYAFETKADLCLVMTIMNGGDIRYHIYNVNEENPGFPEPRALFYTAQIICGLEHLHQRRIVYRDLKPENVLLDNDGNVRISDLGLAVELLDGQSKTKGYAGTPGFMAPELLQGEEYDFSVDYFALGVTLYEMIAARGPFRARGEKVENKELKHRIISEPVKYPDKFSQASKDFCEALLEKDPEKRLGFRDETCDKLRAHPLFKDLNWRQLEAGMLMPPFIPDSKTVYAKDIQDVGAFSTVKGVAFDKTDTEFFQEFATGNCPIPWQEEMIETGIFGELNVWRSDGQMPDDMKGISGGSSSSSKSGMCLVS
Tyrosine-protein kinase receptor UFO (Homo sapiens), sequence (P30530 whole entry): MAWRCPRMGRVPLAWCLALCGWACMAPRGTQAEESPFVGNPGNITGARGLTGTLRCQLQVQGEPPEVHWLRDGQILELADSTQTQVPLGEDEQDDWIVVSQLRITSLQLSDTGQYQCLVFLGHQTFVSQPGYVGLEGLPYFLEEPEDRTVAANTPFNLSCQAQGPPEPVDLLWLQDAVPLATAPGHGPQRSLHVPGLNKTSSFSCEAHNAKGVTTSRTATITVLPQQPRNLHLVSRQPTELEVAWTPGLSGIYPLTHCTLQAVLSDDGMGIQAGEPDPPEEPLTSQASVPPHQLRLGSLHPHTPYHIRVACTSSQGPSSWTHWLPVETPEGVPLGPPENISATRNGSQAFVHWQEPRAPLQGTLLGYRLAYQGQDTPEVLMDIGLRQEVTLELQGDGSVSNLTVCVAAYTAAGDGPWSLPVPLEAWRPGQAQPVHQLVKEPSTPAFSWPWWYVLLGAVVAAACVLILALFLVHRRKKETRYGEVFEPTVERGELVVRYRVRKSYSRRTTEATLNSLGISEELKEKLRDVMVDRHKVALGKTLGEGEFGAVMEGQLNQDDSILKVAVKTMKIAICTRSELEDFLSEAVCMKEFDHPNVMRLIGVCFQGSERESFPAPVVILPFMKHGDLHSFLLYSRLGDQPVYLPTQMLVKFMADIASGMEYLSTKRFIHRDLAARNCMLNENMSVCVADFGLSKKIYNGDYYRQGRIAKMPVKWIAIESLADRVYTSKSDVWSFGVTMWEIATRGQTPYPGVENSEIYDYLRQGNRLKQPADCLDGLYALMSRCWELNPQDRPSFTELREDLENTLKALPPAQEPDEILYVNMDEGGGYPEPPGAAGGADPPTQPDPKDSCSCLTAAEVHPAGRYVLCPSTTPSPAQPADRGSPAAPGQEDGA
Macrophage colony-stimulating factor 1 receptor (Homo sapiens), sequence (P07333 whole entry): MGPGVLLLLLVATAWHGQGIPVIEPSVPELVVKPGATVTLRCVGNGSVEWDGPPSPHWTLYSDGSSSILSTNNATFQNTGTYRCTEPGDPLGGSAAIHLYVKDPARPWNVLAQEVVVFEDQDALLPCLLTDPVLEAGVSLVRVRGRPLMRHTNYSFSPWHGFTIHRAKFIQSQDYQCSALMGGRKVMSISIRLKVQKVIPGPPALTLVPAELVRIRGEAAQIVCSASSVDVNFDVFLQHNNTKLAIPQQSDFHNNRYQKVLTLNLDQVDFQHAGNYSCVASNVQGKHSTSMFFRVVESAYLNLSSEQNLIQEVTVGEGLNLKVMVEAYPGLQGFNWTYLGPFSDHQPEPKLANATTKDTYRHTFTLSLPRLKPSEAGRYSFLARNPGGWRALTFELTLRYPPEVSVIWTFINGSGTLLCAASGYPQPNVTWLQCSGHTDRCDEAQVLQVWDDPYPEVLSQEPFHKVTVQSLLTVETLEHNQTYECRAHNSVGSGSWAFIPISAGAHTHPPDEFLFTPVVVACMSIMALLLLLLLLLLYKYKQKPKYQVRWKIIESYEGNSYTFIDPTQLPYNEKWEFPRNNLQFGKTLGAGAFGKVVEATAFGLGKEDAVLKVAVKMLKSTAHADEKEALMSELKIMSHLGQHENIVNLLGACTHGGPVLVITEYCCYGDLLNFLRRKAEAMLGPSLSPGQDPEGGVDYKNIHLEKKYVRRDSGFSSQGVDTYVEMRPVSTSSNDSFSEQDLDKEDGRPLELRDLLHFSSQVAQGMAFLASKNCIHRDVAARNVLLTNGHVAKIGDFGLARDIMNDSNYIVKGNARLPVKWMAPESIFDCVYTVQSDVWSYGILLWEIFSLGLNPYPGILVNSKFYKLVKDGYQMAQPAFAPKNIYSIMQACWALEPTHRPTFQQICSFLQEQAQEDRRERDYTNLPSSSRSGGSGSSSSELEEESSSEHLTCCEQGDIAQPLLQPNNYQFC
Dual specificity protein kinase CLK4 (Homo sapiens), sequence (Q9HAZ1 whole entry, looked up): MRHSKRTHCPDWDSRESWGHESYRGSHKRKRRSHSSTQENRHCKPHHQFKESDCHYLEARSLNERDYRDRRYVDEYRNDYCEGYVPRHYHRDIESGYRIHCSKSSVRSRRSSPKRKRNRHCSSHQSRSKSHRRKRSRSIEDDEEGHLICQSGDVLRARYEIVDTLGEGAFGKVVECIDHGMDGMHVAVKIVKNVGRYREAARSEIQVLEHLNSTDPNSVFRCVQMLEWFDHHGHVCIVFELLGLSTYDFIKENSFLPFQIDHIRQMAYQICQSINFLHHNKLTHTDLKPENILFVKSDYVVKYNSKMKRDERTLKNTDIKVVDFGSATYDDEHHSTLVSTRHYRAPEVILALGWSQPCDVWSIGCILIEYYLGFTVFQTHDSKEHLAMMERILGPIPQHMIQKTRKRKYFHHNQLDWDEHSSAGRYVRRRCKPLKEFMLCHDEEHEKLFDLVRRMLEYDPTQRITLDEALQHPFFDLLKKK
Aurora kinase C (Homo sapiens), sequence (Q9UQB9 whole entry): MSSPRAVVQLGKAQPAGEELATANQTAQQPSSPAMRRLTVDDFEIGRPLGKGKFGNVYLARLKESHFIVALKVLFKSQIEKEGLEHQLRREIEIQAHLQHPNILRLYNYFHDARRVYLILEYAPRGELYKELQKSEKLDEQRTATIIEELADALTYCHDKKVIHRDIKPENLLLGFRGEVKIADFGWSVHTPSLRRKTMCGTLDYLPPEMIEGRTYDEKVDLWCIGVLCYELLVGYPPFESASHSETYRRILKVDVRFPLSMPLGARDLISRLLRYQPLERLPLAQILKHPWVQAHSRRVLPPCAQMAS
Receptor-type tyrosine-protein kinase FLT3 (Homo sapiens), P36888 [UNDEFINED MUTATION], sequence (P36888 whole entry, looked up, change not shown): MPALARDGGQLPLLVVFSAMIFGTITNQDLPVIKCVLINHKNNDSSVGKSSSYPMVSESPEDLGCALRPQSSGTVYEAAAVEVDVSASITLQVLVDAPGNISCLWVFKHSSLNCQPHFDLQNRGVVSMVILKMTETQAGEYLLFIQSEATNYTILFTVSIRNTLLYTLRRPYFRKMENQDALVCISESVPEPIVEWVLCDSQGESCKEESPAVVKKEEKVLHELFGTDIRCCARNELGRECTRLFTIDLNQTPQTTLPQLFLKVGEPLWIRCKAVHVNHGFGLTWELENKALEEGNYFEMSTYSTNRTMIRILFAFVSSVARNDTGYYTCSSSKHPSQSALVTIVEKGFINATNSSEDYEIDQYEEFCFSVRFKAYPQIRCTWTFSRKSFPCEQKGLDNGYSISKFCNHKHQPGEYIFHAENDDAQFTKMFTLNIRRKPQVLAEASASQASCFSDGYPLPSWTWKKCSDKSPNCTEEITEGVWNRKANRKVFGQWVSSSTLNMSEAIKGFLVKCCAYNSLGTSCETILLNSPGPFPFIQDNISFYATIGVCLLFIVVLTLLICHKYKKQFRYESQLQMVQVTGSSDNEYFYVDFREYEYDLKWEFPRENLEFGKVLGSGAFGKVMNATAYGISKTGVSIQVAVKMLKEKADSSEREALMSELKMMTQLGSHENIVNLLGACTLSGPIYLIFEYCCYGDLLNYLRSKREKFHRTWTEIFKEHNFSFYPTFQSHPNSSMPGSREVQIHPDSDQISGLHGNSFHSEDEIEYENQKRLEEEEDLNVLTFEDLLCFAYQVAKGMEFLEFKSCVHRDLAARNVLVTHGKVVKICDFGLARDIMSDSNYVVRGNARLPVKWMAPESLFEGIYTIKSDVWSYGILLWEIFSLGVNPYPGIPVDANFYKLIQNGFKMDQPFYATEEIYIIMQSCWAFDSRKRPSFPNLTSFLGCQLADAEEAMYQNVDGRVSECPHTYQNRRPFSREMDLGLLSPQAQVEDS
Aurora kinase A (Homo sapiens), sequence (O14965 whole entry): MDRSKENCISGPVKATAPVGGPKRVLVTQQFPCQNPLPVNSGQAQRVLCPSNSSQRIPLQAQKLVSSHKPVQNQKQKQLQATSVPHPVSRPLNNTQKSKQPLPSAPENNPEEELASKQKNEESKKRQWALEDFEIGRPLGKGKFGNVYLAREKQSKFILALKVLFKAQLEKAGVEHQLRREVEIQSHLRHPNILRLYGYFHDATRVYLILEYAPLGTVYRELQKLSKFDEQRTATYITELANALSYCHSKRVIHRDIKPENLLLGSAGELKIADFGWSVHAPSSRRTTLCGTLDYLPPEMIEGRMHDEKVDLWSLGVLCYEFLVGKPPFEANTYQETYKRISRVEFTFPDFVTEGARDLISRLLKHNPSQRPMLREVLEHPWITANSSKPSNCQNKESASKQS

SMILES: C[C@H](c1ccc(F)cc1)N(Cc1cccc(C(=O)O)c1)C(=O)c1cnc2ccccc2c1 [PF-05105679]
- residual activity [1]: 75%
- residual activity [2]: 100%
- residual activity [3]: 78%
- residual activity [4]: 100%
- residual activity [5]: 100%
- residual activity [6]: 74%
- residual activity [7]: 80%
- residual activity [8]: 100%
- residual activity [9]: 100%
- residual activity [10]: 100%
- residual activity [11]: 100%
- residual activity [12]: 94%
- residual activity [13]: 100%
- residual activity [14]: 92%
- residual activity [15]: 100%
- residual activity [16]: 99%
- residual activity [17]: 93%
- residual activity [18]: 100%
- residual activity [19]: 66%
- residual activity [20]: 100%
- residual activity [21]: 87%
- inhibition [22]: 3.57%
- inhibition [23]: 7.61%
- residual activity [24]: 100%
- residual activity [25]: 100%
- residual activity [26]: 100%
- residual activity [27]: 100%
- residual activity [28]: 100%
- residual activity [29]: 100%
- residual activity [30]: 100%
- residual activity [31]: 100%
- residual activity [32]: 74%
- residual activity [33]: 100%
- residual activity [34]: 100%
- inhibition at 10 µM [35]: 32% (not active)
- residual activity [36]: 100%
- residual activity [37]: 97%
- residual activity [38]: 87%
- residual activity [39]: 100%
- residual activity [40]: 82%
- residual activity [41]: 100%
- residual activity [42]: 100%
- residual activity [43]: 100%
- residual activity [44]: 100%
